tested on: HEK293T cells carrying the ATF4 luciferase reporter; assay: ATF4-Luc assay, in vitro model of Vanishing Cell White Matter Disease (VWMD); assay type: cell-based; conditions: Homo sapiens, HEK-293T, 1 μg/mL tunicamycin, 7 hours, One Glo luminescence
Summary of the method: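 Compound at 200 nM and tunicamycin at 1 μg/mL were given together for 7 h to HEK293T cells stably transduced with an ATF4 5′-UTR-driven firefly luciferase reporter. Read-out by luminescence, reported as EC50.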

Compared with Cc1cc(C(=O)NC23CCC(NC(=O)COc4ccc(Cl)c(Cl)c4)(C2)C3)nn1-c1ccc(Cl)cc1 [Compound 111, 1-(4-chlorophenyl)-N-{4-[2-(3,4-dichlorophenoxy)acetamido]bicyclo[2.1.1]-hexan-1-yl}5-methyl-1H-pyrazole-3-carboxamide], O=C(COc1ccc(Cl)c(F)c1)NC12CC(NC(=O)c3ccc(F)cn3)(C1)C2 [Compound 262, N-{3-[2-(4-chloro-3-fluorophenoxy)acetamido]bicyclo[1.1.1]pentan-1-yl}-5-fluoropyridine-2-carboxamide] is lower in EC50: > 2 µM for the first, 0.05 to 0.25 µM for the second.

First: Cc1noc(C)c1C(=O)NC12CCC(NC(=O)COc3ccc(Cl)c(F)c3)(CC1)CC2O (stereo not drawn) [Compound 216, N-{4-[2-(4-chloro-3-fluorophenoxy)acetamido]-2-hydroxybicyclo[2.2.2]octan-1-yl}-3,5-dimethyl-1,2-oxazole-4-carboxamide]
Second: Cc1cc(C(=O)NC23CCC(NC(=O)COc4ccc(Cl)c(F)c4)(CC2)CC3O)on1 (stereo not drawn) [Compound 330, N-{4-[2-(4-chloro-3-fluorophenoxy)acetamido]-2-hydroxybicyclo[2.2.2]octan-1-yl}-3-methyl-1,2-oxazole-5-carboxamide]
The EC50 of the first is higher: > 2 µM for the first, 0.05 to 0.25 µM for the second. The second is the more potent here.

COc1ccc(F)c(C(=O)NC23CC(NC(=O)COc4ccc(Cl)c(F)c4)(C2)C3)c1 [Compound 520, N-{3-[2-(4-chloro-3-fluorophenoxy)acetamido]bicyclo[1.1.1]pentan-1-yl}-2-fluoro-5-methoxybenzamide] and O=C(COc1ccc(Cl)c(F)c1)NC12CC(NC(=O)c3ccc(F)cc3F)(C1)C2 [Compound 511, N-{3-[2-(4-chloro-3-fluorophenoxy)acetamido]bicyclo[1.1.1]pentan-1-yl}-2,4-difluorobenzamide] fall in the same range of EC50: 0.25 to 1 µM for the first, 0.25 to 1 µM for the second.

Compared with Cc1cnc2c(C(=O)NC34CC(NC(=O)COc5ccc(Cl)c(F)c5)(C3)C4)cnn2c1 [Compound 806, N-{3-[2-(4-chloro-3-fluorophenoxy)acetamido]bicyclo[1.1.1]pentan-1-yl}-6-methylpyrazolo[1,5-a]pyrimidine-3-carboxamide], Cc1cncc(C(=O)NC23CC(NC(=O)COc4ccc(Cl)c(F)c4)(C2)C3)c1 [Compound 644, N-{3-[2-(4-chloro-3-fluorophenoxy)acetamido]bicyclo[1.1.1]pentan-1-yl}-5-methylpyridine-3-carboxamide] is lower in EC50: > 2 µM for the first, 0.05 to 0.25 µM for the second.

Compared with COc1ccc(C(=O)NC23CC(NC(=O)COc4ccc(Cl)c(F)c4)(C2)C3)cc1 [Compound 533, N-{3-[2-(4-chloro-3-fluorophenoxy)acetamido]bicyclo[1.1.1]pentan-1-yl}-4-methoxybenzamide], COCc1cccc(C(=O)NC23CC(NC(=O)COc4ccc(Cl)c(F)c4)(C2)C3)n1 [Compound 174, N-{3-[2-(4-chloro-3-fluorophenoxy)acetamido]bicyclo[1.1.1]pentan-1-yl}-6-(methoxymethyl)pyridine-2-carboxamide] is higher in EC50: 0.05 to 0.25 µM for the first, 0.25 to 1 µM for the second. The first is the more potent here.

Compared with CCc1cc(C(=O)NC23CCC(NC(=O)COc4ccc(Cl)c(F)c4)(CC2)[C@@H](O)C3)on1 [Compound 618, N-{(3S)-4-[2-(4-chloro-3-fluorophenoxy)acetamido]-3-hydroxybicyclo[2.2.2]octan-1-yl}-3-ethyl-1,2-oxazole-5-carboxamide], Cc1cc(C(=O)NC23CCC(NC(=O)COc4ccc(Cl)c(F)c4)(CC2)[C@H](O)C3)on1 (single isomer, unassigned) [Compound 357] is higher in EC50: < 0.05 µM for the first, 0.25 to 1 µM for the second. The first is the more potent here.

First: O=C(COc1ccc(Cl)c(F)c1)NC12CC(NC(=O)c3ccc(CCC4CC4)cn3)(C1)C2 [Compound 289, N-{3-[2-(4-chloro-3-fluorophenoxy)acetamido]bicyclo[1.1.1]pentan-1-yl}-5-(2-cyclopropylethyl)pyridine-2-carboxamide]
Second: O=C(COc1ccc(Cl)c(F)c1)NC12CC(NC(=O)c3cc(CNC(=O)C4CC4)ccn3)(C1)C2 [Compound 391, N-{3-[2-(4-chloro-3-fluorophenoxy)acetamido]bicyclo[1.1.1]pentan-1-yl}-4-{[(cyclopropanecarbonyl)amino]methyl}pyridine-2-carboxamide]
The EC50 of the first is lower: < 0.05 µM for the first, 0.25 to 1 µM for the second.

First: O=C(COc1ccc(Cl)c(F)c1)NC12CCC(NC(=O)c3coc4c3C(=O)CCC4)(CC1)C(O)C2 (stereo not drawn) [Compound 222, N-{4-[2-(4-chloro-3-fluorophenoxy)acetamido]-2-hydroxybicyclo[2.2.2]octan-1-yl}-4-oxo-4,5,6,7-tetrahydro-1-benzofuran-3-carboxamide]
Second: Cc1nc(C(=O)NC23CCC(NC(=O)COc4ccc(Cl)c(F)c4)(CC2)C(O)C3)co1 (stereo not drawn) [Compound 467, N-{4-[2-(4-chloro-3-fluorophenoxy)acetamido]-3-hydroxybicyclo[2.2.2]octan-1-yl}-2-methyl-1,3-oxazole-4-carboxamide]
The EC50 of the first is higher: > 2 µM for the first, 0.05 to 0.25 µM for the second. The second is the more potent here.

First: O=C(COc1ccc(Cl)c(F)c1)NC12CC(NC(=O)c3cncc(N4CCOCC4)n3)(C1)C2 [Compound 894, N-{3-[2-(4-chloro-3-fluorophenoxy)acetamido]bicyclo[1.1.1]pentan-1-yl}-6-(morpholin-4-yl)pyrazine-2-carboxamide]
Second: O=C(COc1ccc(Cl)c(F)c1)NC12CC(NC(=O)c3cc4n(n3)CCCN4)(C1)C2 [Compound 125, N-{3-[2-(4-chloro-3-fluorophenoxy)acetamido]bicyclo[1.1.1]pentan-1-yl}-4,5,6,7-tetrahydropyrazolo[1,5-a]pyrimidine-2-carboxamide]
The EC50 of the first is lower: 0.25 to 1 µM for the first, > 2 µM for the second.

O=C(COc1ccc(Cl)c(F)c1)NC12CC(NC(=O)c3scc4c3OCCO4)(C1)C2 [Compound 873, N-{3-[2-(4-chloro-3-fluorophenoxy)acetamido]bicyclo[1.1.1]pentan-1-yl}-2,3-dihydrothieno[3,4-b][1,4]dioxine-5-carboxamide] and Cn1cccc1C(=O)NC12CC(NC(=O)COc3ccc(Cl)c(F)c3)(C1)C2 [Compound 821, N-{3-[2-(4-chloro-3-fluorophenoxy)acetamido]bicyclo[1.1.1]pentan-1-yl}-1-methyl-1H-pyrrole-2-carboxamide] cannot be ordered by EC50: > 2 µM for the first, > 2 µM for the second.

O=C(COc1ccc(Cl)c(F)c1)NC12CC(NC(=O)c3ccccc3-n3cccn3)(C1)C2 [Compound 839, N-{3-[2-(4-chloro-3-fluorophenoxy)acetamido]bicyclo[1.1.1]pentan-1-yl}-2-(1H-pyrazol-1-yl)benzamide] and Cc1nccn1-c1ccccc1C(=O)NC12CC(NC(=O)COc3ccc(Cl)c(F)c3)(C1)C2 [Compound 883, N-{3-[2-(4-chloro-3-fluorophenoxy)acetamido]bicyclo[1.1.1]pentan-1-yl}-2-(2-methyl-1H-imidazol-1-yl)benzamide] cannot be ordered by EC50: > 2 µM for the first, > 2 µM for the second.

Compared with O=C(COc1ccc(Cl)c(F)c1)NC12CCC(NC(=O)c3cc(C4CC4)no3)(CC1)C(O)C2 (stereo not drawn) [Compound 331, N-{4-[2-(4-chloro-3-fluorophenoxy)acetamido]-2-hydroxybicyclo[2.2.2]octan-1-yl}-3-cyclopropyl-1,2-oxazole-5-carboxamide], O=C(COc1ccc(Cl)c(F)c1)NC12CCC(NC(=O)c3cc(Cl)no3)(CC1)CC2O (stereo not drawn) [Compound 414, 3-chloro-N-{4-[2-(4-chloro-3-fluorophenoxy)acetamido]-3-hydroxybicyclo[2.2.2]octan-1-yl}-1,2-oxazole-5-carboxamide] is lower in EC50: 0.25 to 1 µM for the first, 0.05 to 0.25 µM for the second.

Cc1cnccc1C(=O)NC12CC(NC(=O)COc3ccc(Cl)c(F)c3)(C1)C2 [Compound 814, N-{3-[2-(4-chloro-3-fluorophenoxy)acetamido]bicyclo[1.1.1]pentan-1-yl}-3-methylpyridine-4-carboxamide] and Cc1ccn2cc(C(=O)NC34CC(NC(=O)COc5ccc(Cl)c(F)c5)(C3)C4)nc2c1 [Compound 808, N-{3-[2-(4-chloro-3-fluorophenoxy)acetamido]bicyclo[1.1.1]pentan-1-yl}-7-methylimidazo[1,2-a]pyridine-2-carboxamide] cannot be ordered by EC50: > 2 µM for the first, > 2 µM for the second.

First: Cc1nc(C(=O)NC23CCC(NC(=O)COc4ccc(Cl)c(Cl)c4)(CC2)[C@@H](O)C3)n[nH]1 [Compound 702, N-{(3S)-4-[2-(3,4-dichlorophenoxy)acetamido]-3-hydroxybicyclo[2.2.2]octan-1-yl}-5-methyl-1H-1,2,4-triazole-3-carboxamide]
Second: O=C(COc1ccc(Cl)c(F)c1)NC12CCC(NC(=O)c3onc4ccccc34)(CC1)CC2O (stereo not drawn) [Compound 328, N-{4-[2-(4-chloro-3-fluorophenoxy)acetamido]-3-hydroxybicyclo[2.2.2]octan-1-yl}-2,1-benzoxazole-3-carboxamide]
The EC50 of the first is lower: < 0.05 µM for the first, 1 to 2 µM for the second. The first is the more potent here.

O=C(COc1ccc(Cl)c(F)c1)NC12CC(NC(=O)c3ccc4snnc4c3)(C1)C2 [Compound 800, N-{3-[2-(4-chloro-3-fluorophenoxy)acetamido]bicyclo[1.1.1]pentan-1-yl}-1,2,3-benzothiadiazole-5-carboxamide] and CC(C)(O)c1cccc(C(=O)NC23CC(NC(=O)COc4ccc(Cl)c(F)c4)(C2)C3)c1 [Compound 386, N-{3-[2-(4-chloro-3-fluorophenoxy)acetamido]bicyclo[1.1.1]pentan-1-yl}-3-(2-hydroxypropan-2-yl)benzamide] cannot be ordered by EC50: > 2 µM for the first, > 2 µM for the second.

First: O=C(COc1ccc(Cl)c(F)c1)NC12CC(NC(=O)c3cnc(C(F)(F)F)cn3)(C1)C2 [Compound 115, N-{3-[2-(4-chloro-3-fluorophenoxy)acetamido]bicyclo[1.1.1]pentan-1-yl}-5-(trifluoromethyl)pyrazine-2-carboxamide]
Second: Cc1cnc(C(=O)NC23CC(NC(=O)COc4ccc(C(F)(F)F)nc4)(C2)C3)cn1 [Compound 162, 5-methyl-N-[3-(2-{[6-(trifluoromethyl)pyridin-3-yl]oxy}acetamido)bicyclo[1.1.1]pentan-1-yl]pyrazine-2-carboxamide]
The EC50 of the first is lower: 1 to 2 µM for the first, > 2 µM for the second. The first is the more potent here.

Cn1nc2ccccc2c1C(=O)NC12CC(NC(=O)COc3ccc(Cl)c(F)c3)(C1)C2 [Compound 896, N-{3-[2-(4-chloro-3-fluorophenoxy)acetamido]bicyclo[1.1.1]pentan-1-yl}-2-methyl-2H-indazole-3-carboxamide] gave an EC50 of 1 to 2 µM.

From patent US10913727B2, “Modulators of the integrated stress pathway” (Calico Life Sciences LLC, priority 2016, dated 2021)
